Consider five compounds from ChEMBL document CHEMBL2375306, “Antimicrobial peptides containing unnatural amino acid exhibit potent bactericidal activity against ESKAPE pathogens” (Bioorg Med Chem, 2013).

Holding throughout (format): functional
Assay [1] has as its system Acinetobacter baumannii. Put plainly: Antibacterial activity against Acinetobacter baumannii WRAIR clinical isolate 13 after 24 hrs by broth microdilution method. Conditions: WRAIR clinical isolate 13, 24 h.
Assay [2] concerns Enterococcus faecium. Put plainly: Antibacterial activity against Enterococcus faecium MMC4 after 24 hrs by broth microdilution method. The following applies: MMC4, 24 h. For orientation: Dilution methods test growth across graded concentrations, often in twofold steps.
Assay [3] deals with Klebsiella pneumoniae. Briefly: Antibacterial activity against Klebsiella pneumoniae BAMS clinical isolate 07-18 after 24 hrs by broth microdilution method. The following applies: BAMS clinical isolate 07-18, 24 h.
Assay [4] relates to Klebsiella aerogenes. Briefly: Antibacterial activity against Enterobacter aerogenes after 24 hrs by broth microdilution method.
In assay [5] the test system is Pseudomonas aeruginosa. Put plainly: Antibacterial activity against Pseudomonas aeruginosa PAO1 after 24 hrs by broth microdilution method. The following applies: PAO1, 24 h.
Assay [6] has as its system Staphylococcus aureus. Briefly: Antibacterial activity against methicillin-sensitive Staphylococcus aureus UAMS-1 after 24 hrs by broth microdilution method. Conditions: UAMS-1, 24 h.

Molecules are shown by their SMILES. Values after ≈ are worked out from the molar mass of the structure shown. Square brackets hold non-standard residues; d marks the D form. Peptide text beside a SMILES is read from it. * marks the point of attachment. ξ: configuration not given here. Pro(3ξ,4ξ-(CH2)4) = O=C(O)[C@H]1NCC2CCCCC21; Phe(4-F) = N[C@@H](Cc1ccc(F)cc1)C(=O)O; Tic = O=C(O)[C@@H]1Cc2ccccc2CN1; X5 = CC(=O)NC(=O)[C@H](CCCCN)N*; X1 = CC(=O)NC(=O)[C@H](CN)N*; Dap = NC[C@H](N)C(=O)O; GABA = NCCCC(=O)O; βAla = NCCC(=O)O

In general, MBC refers to the lowest tested concentration that kills the bacteria rather than only halting them. A lower MBC goes with greater bactericidal potency. Usually MIC stands for the lowest concentration found to suppress growth. Read a high MIC as a need for much substance. Take `CC(=O)N[C@@H](CCCCN)C(=O)N[C@@H](CC(C)C)C(=O)N1Cc2ccccc2C[C@H]1C(=O)N1CC2CCCCC2[C@H]1C(=O)N[C@@H](CCCCN)C(=O)N1Cc2ccccc2C[C@H]1C(=O)N1CC2CCCCC2[C@H]1C(=O)N[C@@H](Cc1ccccc1)C(=O)N1Cc2ccccc2C[C@H]1C(=O)N1CC2CCCCC2[C@H]1C(=O)N[C@@H](CCCCN)C(=O)N1Cc2ccccc2C[C@H]1C(=O)N1CC2CCCCC2[C@H]1C(=O)N[C@@H](Cc1ccccc1)C(=O)N1Cc2ccccc2C[C@H]1C(=O)N1CC2CCCCC2[C@H]1C(=O)N[C@@H](CCCCN)C(=O)N1Cc2ccccc2C[C@H]1C(=O)N1CC2CCCCC2[C@H]1C(=O)N[C@@H](CCCCN)C(=O)N[C@@H](CCCCN)C(=O)N[C@@H](CCCCN)C(=O)N[C@@H](CCCCN)C(N)=O` (stereo not given in full) (Ac-KL[Tic][Pro(3ξ,4ξ-(CH2)4)]K[Tic][Pro(3ξ,4ξ-(CH2)4)]F[Tic][Pro(3ξ,4ξ-(CH2)4)]K[Tic][Pro(3ξ,4ξ-(CH2)4)]F[Tic][Pro(3ξ,4ξ-(CH2)4)]K[Tic][Pro(3ξ,4ξ-(CH2)4)]KKKK-NH2): the minimum bactericidal concentration (MBC) was 100 µg/mL (≈ 29.8 µM) in assay [1]; 25 µg/mL (≈ 7.45 µM) in assay [2]; greater than 100 µg/mL in assay [3]; greater than 100 µg/mL in assay [4]; greater than 100 µg/mL in assay [5]; 50 µg/mL (≈ 14.9 µM) in assay [6]. For the same compound, the MIC in assay [1] is 100 µg/mL (≈ 29.8 µM); in assay [2] it was 12.5 µg/mL (≈ 3.73 µM); in assay [3], greater than 100 µg/mL; in assay [4], greater than 100 µg/mL; in assay [5], greater than 100 µg/mL; in assay [6] it was 50 µg/mL (≈ 14.9 µM).

As for `CC(=O)NCCCC(=O)N[C@@H](Cc1ccccc1)C(=O)N1Cc2ccccc2C[C@H]1C(=O)N1CC2CCCCC2[C@H]1C(=O)NCCCC(=O)N[C@@H](CCCCN)C(=O)N1Cc2ccccc2C[C@H]1C(=O)N1CC2CCCCC2[C@H]1C(=O)NCCCC(=O)N[C@@H](Cc1ccccc1)C(=O)N1Cc2ccccc2C[C@H]1C(=O)N1CC2CCCCC2[C@H]1C(=O)NCCCC(=O)N[C@@H](CCCCN)C(=O)N1Cc2ccccc2C[C@H]1C(=O)N[C@@H](CCCCN)C(=O)N[C@@H](CCCCN)C(=O)N[C@@H](CCCCN)C(=O)N[C@@H](CCCCN)C(N)=O` (stereo not given in full) (Ac-[GABA]F[Tic][Pro(3ξ,4ξ-(CH2)4)][GABA]K[Tic][Pro(3ξ,4ξ-(CH2)4)][GABA]F[Tic][Pro(3ξ,4ξ-(CH2)4)][GABA]K[Tic]KKKK-NH2), the MBC in assay [1] is 25 µg/mL (≈ 9.79 µM); in assay [2] it was 25 µg/mL (≈ 9.79 µM); in assay [3] it was 100 µg/mL (≈ 39.2 µM); in assay [4], greater than 100 µg/mL; in assay [5], greater than 100 µg/mL; in assay [6], greater than 100 µg/mL. Besides, the MIC in assay [1] was 12.5 µg/mL (≈ 4.9 µM); in assay [2] it was 12.5 µg/mL (≈ 4.9 µM); in assay [3] it was 100 µg/mL (≈ 39.2 µM); in assay [4] it was greater than 100 µg/mL; in assay [5] it was greater than 100 µg/mL; in assay [6], greater than 100 µg/mL.

In the case of `CC(=O)NCCC(=O)N[C@@H](Cc1ccccc1)C(=O)N1Cc2ccccc2C[C@H]1C(=O)N1CC2CCCCC2[C@H]1C(=O)NCCC(=O)N[C@@H](CCCCN)C(=O)N1Cc2ccccc2C[C@H]1C(=O)N1CC2CCCCC2[C@H]1C(=O)NCCC(=O)N[C@@H](Cc1ccccc1)C(=O)N1Cc2ccccc2C[C@H]1C(=O)N1CC2CCCCC2[C@H]1C(=O)NCCC(=O)N[C@@H](CCCCN)C(=O)N1Cc2ccccc2C[C@H]1C(=O)N[C@@H](CCCCN)C(=O)N[C@@H](CCCCN)C(=O)N[C@@H](CCCCN)C(=O)N[C@@H](CCCCN)C(=O)NC(C)=O` (stereo not given in full) (Ac-[βAla]F[Tic][Pro(3ξ,4ξ-(CH2)4)][βAla]K[Tic][Pro(3ξ,4ξ-(CH2)4)][βAla]F[Tic][Pro(3ξ,4ξ-(CH2)4)][βAla]K[Tic]KKK-X5), the MBC in assay [1] is 25 µg/mL (≈ 9.85 µM); in assay [2], 50 µg/mL (≈ 19.7 µM); in assay [3] it was greater than 100 µg/mL; in assay [4] it was greater than 100 µg/mL; in assay [5], greater than 100 µg/mL; in assay [6] it was greater than 100 µg/mL. Also, the MIC in assay [1] is 12.5 µg/mL (≈ 4.92 µM); in assay [2], 25 µg/mL (≈ 9.85 µM); in assay [3], greater than 100 µg/mL; in assay [4] it was greater than 100 µg/mL; in assay [5], greater than 100 µg/mL; in assay [6] it was greater than 100 µg/mL.

Turning to `CC(=O)NCCC(=O)N[C@@H](Cc1ccc(F)cc1)C(=O)N1Cc2ccccc2C[C@H]1C(=O)N1CC2CCCCC2[C@H]1C(=O)NCCC(=O)N[C@@H](CN)C(=O)N1Cc2ccccc2C[C@H]1C(=O)N1CC2CCCCC2[C@H]1C(=O)NCCC(=O)N[C@@H](Cc1ccc(F)cc1)C(=O)N1Cc2ccccc2C[C@H]1C(=O)N1CC2CCCCC2[C@H]1C(=O)NCCC(=O)N[C@@H](CN)C(=O)N1Cc2ccccc2C[C@H]1C(=O)N[C@@H](CN)C(=O)N[C@@H](CN)C(=O)N[C@@H](CN)C(=O)N[C@@H](CN)C(=O)NC(C)=O` (stereo not given in full) (Ac-[βAla][Phe(4-F)][Tic][Pro(3ξ,4ξ-(CH2)4)][βAla][Dap][Tic][Pro(3ξ,4ξ-(CH2)4)][βAla][Phe(4-F)][Tic][Pro(3ξ,4ξ-(CH2)4)][βAla][Dap][Tic][Dap][Dap][Dap]-X1), the MBC in assay [1] is 25 µg/mL (≈ 10.8 µM); in assay [2], greater than 100 µg/mL; in assay [3], 25 µg/mL (≈ 10.8 µM); in assay [4] it was 25 µg/mL (≈ 10.8 µM); in assay [5], 50 µg/mL (≈ 21.5 µM); in assay [6], greater than 100 µg/mL. Besides, the minimal inhibitory concentration (MIC) is 12.5 µg/mL (≈ 5.38 µM) in assay [1]; 50 µg/mL (≈ 21.5 µM) in assay [2]; 12.5 µg/mL (≈ 5.38 µM) in assay [3]; 25 µg/mL (≈ 10.8 µM) in assay [4]; 25 µg/mL (≈ 10.8 µM) in assay [5]; greater than 100 µg/mL in assay [6].

Turning to `CC(C)C[C@H](NC(=O)[C@@H](N)CCCCN)C(=O)N1Cc2ccccc2C[C@H]1C(=O)N1CC2CCCCC2[C@H]1C(=O)NCC(=O)N[C@@H](CCCCN)C(=O)N1Cc2ccccc2C[C@H]1C(=O)N1CC2CCCCC2[C@H]1C(=O)N[C@@H](Cc1ccccc1)C(=O)N1Cc2ccccc2C[C@H]1C(=O)N1CC2CCCCC2[C@H]1C(=O)NCC(=O)N[C@@H](CCCCN)C(=O)N1Cc2ccccc2C[C@H]1C(=O)N1CC2CCCCC2[C@H]1C(=O)N[C@@H](Cc1ccccc1)C(=O)N1Cc2ccccc2C[C@H]1C(=O)N1CC2CCCCC2[C@H]1C(=O)NCC(=O)N[C@@H](CCCCN)C(=O)N1Cc2ccccc2C[C@H]1C(=O)N1CC2CCCCC2[C@H]1C(=O)N[C@@H](CCCCN)C(=O)N[C@@H](CCCCN)C(=O)N[C@@H](CCCCN)C(=O)N[C@@H](CCCCN)C(N)=O` (stereo not given in full) (H-KL[Tic][Pro(3ξ,4ξ-(CH2)4)]GK[Tic][Pro(3ξ,4ξ-(CH2)4)]F[Tic][Pro(3ξ,4ξ-(CH2)4)]GK[Tic][Pro(3ξ,4ξ-(CH2)4)]F[Tic][Pro(3ξ,4ξ-(CH2)4)]GK[Tic][Pro(3ξ,4ξ-(CH2)4)]KKKK-NH2), the minimal bactericidal concentration (MBC) in assay [1] is 50 µg/mL (≈ 14.4 µM); in assay [2] it was 25 µg/mL (≈ 7.18 µM); in assay [3], 100 µg/mL (≈ 28.7 µM); in assay [4], greater than 100 µg/mL; in assay [5], greater than 100 µg/mL; in assay [6] it was 50 µg/mL (≈ 14.4 µM). For the same compound, the MIC is 12.5 µg/mL (≈ 3.59 µM) in assay [1]; 6.25 µg/mL (≈ 1.79 µM) in assay [2]; greater than 100 µg/mL in assay [3]; greater than 100 µg/mL in assay [4]; greater than 100 µg/mL in assay [5]; 50 µg/mL (≈ 14.4 µM) in assay [6].
